*1 amine or outer side, *2 acyl side, *3 side chain or, on linkers, in order; H or OH if unused. Where a SMILES comes first, the peptide text is derived from it. Bridges are numbered along the chain shown (N, C = ends). [ ]: non-standard residue; d: D form. The star is where a group is joined. ξ: configuration not given here. X1 = CC[C@H](C)[C@@H](N[*:1])[C@@H](O)CC(=O)O[C@H](C(=O)[C@H](C)C(=O)[*:2])C(C)C; X2 = CC[C@H](C)[C@@H](N[*:1])[C@@H](O)CC(=O)[*:2]; X3 = C[C@H](O[Si](C)(C)C(C)(C)C)C(=O)*; NMeY = CN[C@@H](Cc1ccc(O)cc1)C(=O)O; X6 = O=C1NC2CSC(CCCCC(=O)*)C2N1; dNMeL = CN[C@H](CC(C)C)C(=O)O; Hiv = CC(C)[C@H](O)C(=O)O; Isobutyryl = CC(C)C(=O)*; dLac = C[C@@H](O)C(=O)O; Hexanoyl = CCCCCC(=O)*; Boc = CC(C)(C)OC(=O)*; Lac = C[C@H](O)C(=O)O; CO = O=C([*:1])[*:2]; X5 = S=C(Nc1ccccc1)*; Butyryl = CCCC(=O)*; NHPh = c1ccc(N*)cc1; ξP = O=C(O)C1CCCN1; Ms = CS(=O)(=O)*; NHBu = CCCCN*
Columns and labels:
[1] = system: A549 human lung carcinoma; experiment: Cytotoxicity IC50 (after Berjeron et al); details: Homo sapiens, A549, read-out: Cytotoxicity of aplidine derivatives IC50 (Molar) A549
Text: (§1) Methodology: after Berjeron et al, Biochem and Bioph Res. Comm., 1984, 121, 3, 848-854.
(§2) P388=Murine lymphoma. A549=human lung carcinoma. HT-29=human colon carcinoma. MEL-28=human melanoma.
(§3) A549=human lung carcinoma. HT-29=human colon carcinoma. MEL-28=human melanoma.

[2] = system: HT-29 human colon carcinoma; experiment: Cytotoxicity IC50 (after Berjeron et al); details: Homo sapiens, HT-29, read-out: Cytotoxicity of aplidine derivatives IC50 (Molar) HT29
Text: as §1, §2, §3

| SMILES | IC50 [1] | IC50 [2] |
| --- | --- | --- |
| CC[C@H](C)[C@H]1NC(=O)[C@@H](NC(=O)[C@@H](CC(C)C)N(C)C(=O)CCCCC2SCC3NC(=O)NC32)[C@@H](C)OC(=O)[C@H](Cc2ccc(OC)cc2)N(C)C(=O)[C@@H]2CCCN2C(=O)[C@H](CC(C)C)NC(=O)[C@@H](C)C(=O)[C@H](C(C)C)OC(=O)C[C@@H]1O (stereo partly drawn) [8BISAPL1, [Biotin]^8-didemnin A] (X6-[dNMeL]T[X1]LP[NMeY](Me); ester 2-C) | 4.27 nM | 4.27 nM |
| CCCC(=O)N(C)[C@H](CC(C)C)C(=O)N[C@@H]1C(=O)N[C@H]([C@@H](C)CC)[C@@H](O)CC(=O)O[C@@H](C(C)C)C(=O)N[C@@H](CC(C)C)C(=O)N2CCC[C@H]2C(=O)N(C)[C@@H](Cc2ccc(OC)cc2)C(=O)O[C@@H]1C [8BSHPL1, [Hiv]^3-[Butyryl]^8-didemnin A] (Butyryl-[dNMeL]T[X2][Hiv]LP[NMeY](Me); ester 2-C) | 1.04 nM | 1.04 nM |
| CCCCNC(=S)N(C)[C@H](CC(C)C)C(=O)N[C@@H]1C(=O)N[C@H]([C@@H](C)CC)[C@@H](O)CC(=O)O[C@@H](C(C)C)C(=O)[C@H](C)C(=O)N[C@@H](CC(C)C)C(=O)N2CCC[C@H]2C(=O)N(C)[C@@H](Cc2ccc(OC)cc2)C(=O)O[C@@H]1C [8BTSAPL1, [Butylthiourea]^8-didemnin A] | 0.945 nM | 0.945 nM |
| CCCCNC(=O)N(C)[C@H](CC(C)C)C(=O)N[C@@H]1C(=O)N[C@H]([C@@H](C)CC)[C@@H](O)CC(=O)O[C@@H](C(C)C)C(=O)[C@H](C)C(=O)N[C@@H](CC(C)C)C(=O)N2CCC[C@H]2C(=O)N(C)[C@@H](Cc2ccc(OC)cc2)C(=O)O[C@@H]1C [8BUSAPL1, [Butylurea]^8-didemnin A] ({NHBu-CO}-[dNMeL]T[X1]LP[NMeY](Me); ester 2-C) | 0.0959 nM | 0.0959 nM |
| CCCCCC(=O)N(C)[C@H](CC(C)C)C(=O)N[C@@H]1C(=O)N[C@H]([C@@H](C)CC)[C@@H](O)CC(=O)O[C@@H](C(C)C)C(=O)N[C@@H](CC(C)C)C(=O)N2CCC[C@H]2C(=O)N(C)[C@@H](Cc2ccc(OC)cc2)C(=O)O[C@@H]1C [8HSHPL1, [Hiv]^3-[hexanoyl]^8-didemnin A] (Hexanoyl-[dNMeL]T[X2][Hiv]LP[NMeY](Me); ester 2-C) | 10.1 nM | 10.1 nM |
| CC[C@H](C)[C@H]1NC(=O)[C@@H](NC(=O)[C@@H](CC(C)C)N(C)C(=O)C(C)C)[C@@H](C)OC(=O)[C@H](Cc2ccc(OC)cc2)N(C)C(=O)[C@@H]2CCCN2C(=O)[C@H](CC(C)C)NC(=O)[C@H](C(C)C)OC(=O)C[C@@H]1O [8ISHPL1, [Hiv]^3-[isobutyryl]^8-didemnin A] (Isobutyryl-[dNMeL]T[X2][Hiv]LP[NMeY](Me); ester 2-C) | 0.522 nM | 0.522 nM |
| CC[C@H](C)[C@H]1NC(=O)[C@@H](NC(=O)[C@@H](CC(C)C)N(C)C(=O)C(C)C)[C@@H](C)OC(=O)[C@H](Cc2ccc(OC)cc2)N(C)C(=O)[C@@H]2CCCN2C(=O)[C@H](CC(C)C)NC(=O)[C@H](C(C)C)NC(=O)C[C@@H]1O [8ISVPL1, [Val]^3-[Isobutyryl]^8-didemnin A] (Isobutyryl-[dNMeL]T[X2]VLP[NMeY](Me); ester 2-C) | 0.105 nM | 0.105 nM |
| CC[C@H](C)[C@H]1NC(=O)[C@@H](NC(=O)[C@@H](CC(C)C)N(C)S(C)(=O)=O)[C@@H](C)OC(=O)[C@H](Cc2ccc(OC)cc2)N(C)C(=O)[C@@H]2CCCN2C(=O)[C@H](CC(C)C)NC(=O)[C@@H](C)C(=O)[C@H](C(C)C)OC(=O)C[C@@H]1O [8MSAPL1, [Methylsulphonyl]^8-didemnin A] (Ms-[dNMeL]T[X1]LP[NMeY](Me); ester 2-C) | 0.979 nM | 0.979 nM |
| CC[C@H](C)[C@H]1NC(=O)[C@@H](NC(=O)[C@@H](CC(C)C)N(C)C(=O)[C@@H]2CCCN2C(=O)OC(C)(C)C)[C@@H](C)OC(=O)[C@H](Cc2ccc(OC)cc2)N(C)C(=O)[C@@H]2CCCN2C(=O)[C@H](CC(C)C)NC(=O)[C@H](C(C)C)OC(=O)C[C@@H]1O [8PSHPL2, [Hiv]^3-[Boc-Pro]^8-didemnin A] (Boc-P[dNMeL]T[X2][Hiv]LP[NMeY](Me); ester 3-C) | 0.922 nM | 0.922 nM |
| CC[C@H](C)[C@H]1NC(=O)[C@@H](NC(=O)[C@@H](CC(C)C)N(C)C(=S)Nc2ccccc2)[C@@H](C)OC(=O)[C@H](Cc2ccc(OC)cc2)N(C)C(=O)[C@@H]2CCCN2C(=O)[C@H](CC(C)C)NC(=O)[C@@H](C)C(=O)[C@H](C(C)C)OC(=O)C[C@@H]1O [8PTSAPL1, [Pheylthiourea]^8-didemnin A] (X5-[dNMeL]T[X1]LP[NMeY](Me); ester 2-C) | 0.927 nM | 0.927 nM |
| CC[C@H](C)[C@H]1NC(=O)[C@@H](NC(=O)[C@@H](CC(C)C)N(C)C(=O)Nc2ccccc2)[C@@H](C)OC(=O)[C@H](Cc2ccc(OC)cc2)N(C)C(=O)[C@@H]2CCCN2C(=O)[C@H](CC(C)C)NC(=O)[C@@H](C)C(=O)[C@H](C(C)C)OC(=O)C[C@@H]1O [8PUSAPL1, [Phenylurea]^8-didemnin A] ({NHPh-CO}-[dNMeL]T[X1]LP[NMeY](Me); ester 2-C) | 0.0942 nM | 0.0942 nM |
| CC[C@H](C)[C@H]1NC(=O)[C@@H](NC(=O)[C@@H](CC(C)C)N(C)C(=O)[C@@H](NC(=O)C(C)C)C(C)C)[C@@H](C)OC(=O)[C@H](Cc2ccc(OC)cc2)N(C)C(=O)[C@@H]2CCCN2C(=O)[C@H](CC(C)C)NC(=O)[C@H](C(C)C)OC(=O)C[C@@H]1O [8V9ISHPL1, [Hiv]^3-[Val]^8-[Isobutyryl]^9-didemnin A] (Isobutyryl-V[dNMeL]T[X2][Hiv]LP[NMeY](Me); ester 3-C) | 9.46 nM | 9.46 nM |
| CC[C@H](C)[C@H]1NC(=O)[C@@H](NC(=O)[C@@H](CC(C)C)N(C)C(=O)[C@@H](N)C(C)C)[C@@H](C)OC(=O)[C@H](Cc2ccc(OC)cc2)N(C)C(=O)[C@@H]2CCCN2C(=O)[C@H](CC(C)C)NC(=O)[C@H](C(C)C)OC(=O)C[C@@H]1O [8VSHPL1, [Hiv]^3-[Val]^8-didemnin A] (H-V[dNMeL]T[X2][Hiv]LP[NMeY](Me); ester 3-C) | 1.01 nM | 1.01 nM |
| CC[C@H](C)[C@H]1NC(=O)[C@@H](NC(=O)[C@@H](CC(C)C)N(C)C(=O)[C@@H](NC(=O)OC(C)(C)C)C(C)C)[C@@H](C)OC(=O)[C@H](Cc2ccc(OC)cc2)N(C)C(=O)[C@@H]2CCCN2C(=O)[C@H](CC(C)C)NC(=O)[C@H](C(C)C)OC(=O)C[C@@H]1O [8VSHPL2, [Hiv]^3-[Boc-Val]^8-didemnin A] (Boc-V[dNMeL]T[X2][Hiv]LP[NMeY](Me); ester 3-C) | 9.21 nM | 9.21 nM |
| CC[C@H](C)[C@H]1NC(=O)[C@@H](NC(=O)[C@@H](CC(C)C)N(C)C(=O)[C@@H]2CCCN2C(=O)[C@H](C)NC(=O)OC(C)(C)C)[C@@H](C)OC(=O)[C@H](Cc2ccc(OC)cc2)N(C)C(=O)[C@@H]2CCCN2C(=O)[C@H](CC(C)C)NC(=O)[C@H](C(C)C)OC(=O)C[C@@H]1O [9BASHPL2, [Hiv]^3-[Boc-Ala]^9-aplidine] (Boc-AP[dNMeL]T[X2][Hiv]LP[NMeY](Me); ester 4-C) | 8.65 nM | 8.65 nM |
| CC[C@H](C)[C@H]1NC(=O)[C@@H](NC(=O)[C@@H](CC(C)C)N(C)C(=O)[C@@H]2CCCN2C(=O)C(C)C)[C@@H](C)OC(=O)[C@H](Cc2ccc(OC)cc2)N(C)C(=O)[C@@H]2CCCN2C(=O)[C@H](CC(C)C)NC(=O)[C@H](C(C)C)OC(=O)C[C@@H]1O [9ISHPL1, [Hiv]^3-[Isobutyryl]^9-aplidine] (Isobutyryl-P[dNMeL]T[X2][Hiv]LP[NMeY](Me); ester 3-C) | 0.474 nM | 0.474 nM |
| CC[C@H](C)[C@H]1NC(=O)[C@@H](NC(=O)[C@@H](CC(C)C)N(C)C(=O)[C@@H]2CCCN2C(=O)C(C)C)[C@@H](C)OC(=O)[C@H](Cc2ccc(OC)cc2)N(C)C(=O)[C@@H]2CCCN2C(=O)[C@H](CC(C)C)NC(=O)[C@H](C(C)C)NC(=O)C[C@@H]1O [9ISVPL1, [Val]^3-[Isobutyryl]^9-aplidine] (Isobutyryl-P[dNMeL]T[X2]VLP[NMeY](Me); ester 3-C) | 0.475 nM | 0.475 nM |
| CC[C@H](C)[C@H]1NC(=O)[C@@H](NC(=O)[C@@H](CC(C)C)N(C)C(=O)C2CCCN2C(=O)[C@@H](C)O)[C@@H](C)OC(=O)[C@H](Cc2ccc(OC)cc2)N(C)C(=O)[C@@H]2CCCN2C(=O)[C@H](CC(C)C)NC(=O)[C@H](C(C)C)OC(=O)C[C@@H]1O (stereo partly drawn) [9LSHPL1(D), [Hiv]^3-[D-Lac]^9-aplidine] (H-[dLac][ξP][dNMeL]T[X2][Hiv]LP[NMeY](Me); ester 4-C) | 0.947 nM | 0.947 nM |
| CC[C@H](C)[C@H]1NC(=O)[C@@H](NC(=O)[C@@H](CC(C)C)N(C)C(=O)C2CCCN2C(=O)[C@H](C)O)[C@@H](C)OC(=O)[C@H](Cc2ccc(OC)cc2)N(C)C(=O)[C@@H]2CCCN2C(=O)[C@H](CC(C)C)NC(=O)[C@H](C(C)C)OC(=O)C[C@@H]1O (stereo partly drawn) [9LSHPL1(L), [Hiv]^3-[L-Lac]^9-aplidine, reference compound] (H-[Lac][ξP][dNMeL]T[X2][Hiv]LP[NMeY](Me); ester 4-C) | 0.947 nM | 0.947 nM |
| CC[C@H](C)[C@H]1NC(=O)[C@@H](NC(=O)[C@@H](CC(C)C)N(C)C(=O)C2CCCN2C(=O)[C@H](C)O[Si](C)(C)C(C)(C)C)[C@@H](C)OC(=O)[C@H](Cc2ccc(OC)cc2)N(C)C(=O)[C@@H]2CCCN2C(=O)[C@H](CC(C)C)NC(=O)[C@H](C(C)C)OC(=O)C[C@@H]1O (stereo partly drawn) [9LSHPL2(L), [Hiv]^3-[L-Lac(OTBDMS)]^9-aplidine] (X3-[ξP][dNMeL]T[X2][Hiv]LP[NMeY](Me); ester 3-C) | 8.55 nM | 8.55 nM |
| CC[C@H](C)[C@H]1NC(=O)[C@@H](NC(=O)[C@@H](CC(C)C)N(C)C(=O)C2CCCN2C(=O)[C@H](C)O)[C@@H](C)OC(=O)[C@H](Cc2ccc(OC)cc2)N(C)C(=O)[C@@H]2CCCN2C(=O)[C@H](CC(C)C)NC(=O)[C@H](C(C)C)NC(=O)C[C@@H]1O (stereo partly drawn) [9LSVPL1(L), [Val]^3-[L-Lac]^9-aplidine] (H-[Lac][ξP][dNMeL]T[X2]VLP[NMeY](Me); ester 4-C) | 0.948 nM | 0.948 nM |

— patent US20080009435A1, “Synthetic methods for aplidine and new antitumoral derivatives, methods of making and using them” (Pharma Mar, S.A., a Spain corporation, priority 2000, published 2008)
